Measurements published in ChEMBL document CHEMBL2086352, “Thiazoline peptides and a tris-phenethyl urea from Didemnum molle with anti-HIV activity” (J Nat Prod, 2012).
Activity calls are given as the source filed them. No cut-off for these calls is given here. Starred links: 1 amine or outer side, 2 acyl side, 3 side chain; linkers in the order of their positions; H or OH if unused. Non-standard residues stand in square brackets, D forms with d. Residues, ends and D or L forms follow the SMILES beside them. *: point of attachment. X1 = O=C([C@H]1CSC([C@@H](Cc2ccccc2)N[*:1])=N1)[*:2]; Allyl(1,1-Me2) = C=CC(C)(C)*

Tests used:
[1] = system: Human immunodeficiency virus; assay: Antiviral activity against HIV infected in 1A2 cells assessed as cytoprotective activity at 78 uM after 96 hrs by MTT assay; assay type: functional, organism-based
[2] = target: Human immunodeficiency virus type 1 integrase (Human immunodeficiency virus 1) (UniProt Q7ZJM1); assay: Inhibition of HIV-1 integrase at 100 ug/ml by colorimetry
Chain of Human immunodeficiency virus type 1 integrase (Human immunodeficiency virus 1) (Q7ZJM1 as listed by the source): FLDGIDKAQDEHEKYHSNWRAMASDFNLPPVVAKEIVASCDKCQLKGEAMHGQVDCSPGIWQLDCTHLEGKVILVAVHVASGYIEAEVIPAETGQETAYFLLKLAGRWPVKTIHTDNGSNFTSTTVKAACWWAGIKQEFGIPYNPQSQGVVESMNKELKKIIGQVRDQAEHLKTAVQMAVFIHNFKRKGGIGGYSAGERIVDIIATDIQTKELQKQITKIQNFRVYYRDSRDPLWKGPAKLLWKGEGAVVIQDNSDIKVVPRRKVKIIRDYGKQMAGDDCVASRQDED

[3] = system: Human immunodeficiency virus; assay: Antiviral activity against HIV infected in 1A2 cells assessed as cytoprotective activity after 96 hrs by MTT assay; assay type: functional, organism-based; details: Human immunodeficiency virus 1, 1A2, 96 h
[4] = target: Human immunodeficiency virus type 1 integrase (Human immunodeficiency virus 1, UniProt Q7ZJM1); assay: Inhibition of HIV-1 integrase by colorimetry
Chain of Human immunodeficiency virus type 1 integrase (Q7ZJM1 whole entry): as the sequence (Q7ZJM1 as listed by the source) above

SMILES	Activity [1]	inhibition [2]	IC50 [3] [µM]	IC50 [4] [µM]
C=CC(C)(C)O[C@H](C)[C@@H]1NC(=O)[C@H]2CSC(=N2)[C@@H](Cc2ccccc2)NC(=O)[C@@H]2CCCN2C(=O)[C@H](CO)NC(=O)[C@H](CC(C)C)NC1=O (cyclo(LSP[X1]T(Allyl(1,1-Me2))))	inactive	inactive		
CC[C@H](C)[C@@H]1NC(=O)[C@H]2CSC(=N2)[C@@H](Cc2ccccc2)NC(=O)[C@@H]2CCCN2C(=O)[C@@H]2CCCN2C(=O)[C@H](C(C)C)NC1=O [MOLLAMIDE F] (cyclo(IVPP[X1]))			78	39
O=C(NCCc1ccccc1)NCCc1ccccc1C(=O)NCCc1ccccc1 [MOLLEUREA A]		inactive	60	
[N-]=[N+]=[N-] [SODIUM AZIDE]				46000
